Measurements published in ChEMBL document CHEMBL3885861, “Open TG-GATES”.

Organism: Rattus norvegicus
Assay: Open TG-GATES - Regimen: Daily Repeat
Type: toxicity, organism-based, Sprague-Dawley
Set-up: regimen Daily Repeat, gender Male, age 6 weeks
Conditions: in vivo, po, route gavage; for Bas / Eos / Fbg / Ht / Lym / MCHC / MCV / Mono / PT / Plat / RBC / Ret / WBC / Neu: tissue Blood; for KIDNEY_L / KIDNEY_R / KIDNEY_TOTAL: tissue Kidney; for ALT / AST / CRE / Ca / DBIL / GLC / IP / K / LDH / Na / PL / RALB / TBIL / TC / TG / TP / gamma-GTP / BUN / Cl: tissue Plasma
[1] = 240 mg/kg, 72 h, dose level Middle, time 3 day
[2] = 240 mg/kg, […], dose level Middle, time 7 day
[3] = 240 mg/kg, […], dose level Middle, time 14 day
[4] = 240 mg/kg, […], dose level Middle, time 28 day
[5] = 800 mg/kg, 72 h, dose level High, time 3 day
[6] = 800 mg/kg, […], dose level High, time 7 day
[7] = 800 mg/kg, […], dose level High, time 14 day
[8] = 800 mg/kg, […], dose level High, time 28 day

COc1ccc([C@@H]2Sc3ccccc3N(CCN(C)C)C(=O)[C@@H]2OC(C)=O)cc1 [DILTIAZEM]
Bas [1]: 0.2%
Eos [1]: 1%
Fbg [1]: 294.4 mg/dL
Ht [1]: 40.4%
Lym [1]: 71.6%
MCHC [1]: 32.8%
MCV [1]: 65.7 fL
Mono [1]: 3.4%
PT [1]: 13.8 s
Plat [1]: 118.5 x10_4/uL
RBC [1]: 614.8 x10_4/ul
Ret [1]: 8.8%
WBC [1]: 106.5 x10_2/uL
KIDNEY_L [1]: 1 g
KIDNEY_R [1]: 1 g
KIDNEY_TOTAL [1]: 2 g
ALT [1]: 50 IU/L
AST [1]: 67.4 IU/L
CRE [1]: 0.2 mg/dL
Ca [1]: 11.3 mg/dL
DBIL [1]: 0.02 mg/dL
GLC [1]: 183 mg/dL
IP [1]: 8.1 mg/dL
K [1]: 3.9 meq/L
LDH [1]: 81.8 IU/L
Na [1]: 144 meq/L
PL [1]: 153.8 mg/dL
RALB [1]: 2.7 g/dL
TBIL [1]: 0.024 mg/dL
TC [1]: 87.6 mg/dL
TG [1]: 99.4 mg/dL
TP [1]: 5.6 g/dL
gamma-GTP [1]: 1.2 IU/L
TERMINAL_BW [2]: 251.4 g
TERMINAL_BW [3]: 321.6 g
TERMINAL_BW [4]: 419 g
Bas [2]: 0%
Eos [2]: 0.8%
Fbg [2]: 301.4 mg/dL
Ht [2]: 41%
Lym [2]: 75.2%
MCHC [2]: 32.9%
MCV [2]: 63.6 fL
Mono [2]: 2.6%
Neu [2]: 20.6%
PT [2]: 13.9 s
Plat [2]: 129.2 x10_4/uL
RBC [2]: 644.6 x10_4/ul
Ret [2]: 7%
WBC [2]: 72.6 x10_2/uL
Bas [3]: 0.6%
Eos [3]: 0.8%
Fbg [3]: 336.4 mg/dL
Ht [3]: 42.8%
Lym [3]: 73%
MCHC [3]: 33.1%
MCV [3]: 61.7 fL
Mono [3]: 2.6%
Neu [3]: 22.2%
PT [3]: 14.1 s
Plat [3]: 131.9 x10_4/uL
RBC [3]: 693.6 x10_4/ul
Ret [3]: 5.6%
WBC [3]: 112.7 x10_2/uL
Bas [4]: 0.2%
Eos [4]: 1.4%
Fbg [4]: 305.4 mg/dL
Ht [4]: 45.7%
Lym [4]: 69%
MCHC [4]: 34.4%
MCV [4]: 58.1 fL
Mono [4]: 2.4%
Neu [4]: 26.6%
PT [4]: 13.9 s
Plat [4]: 109.1 x10_4/uL
RBC [4]: 786.8 x10_4/ul
Ret [4]: 2.5%
WBC [4]: 119 x10_2/uL
KIDNEY_L [2]: 1.1 g
KIDNEY_R [2]: 1 g
KIDNEY_TOTAL [2]: 2.1 g
KIDNEY_L [3]: 1.3 g
KIDNEY_R [3]: 1.4 g
KIDNEY_TOTAL [3]: 2.7 g
KIDNEY_L [4]: 1.5 g
KIDNEY_R [4]: 1.5 g
KIDNEY_TOTAL [4]: 3 g
ALT [2]: 38.6 IU/L
AST [2]: 61.6 IU/L
BUN [2]: 15 mg/dL
CRE [2]: 0.2 mg/dL
Ca [2]: 11.4 mg/dL
Cl [2]: 105.8 meq/L
DBIL [2]: 0.01 mg/dL
GLC [2]: 190.6 mg/dL
IP [2]: 8.2 mg/dL
K [2]: 3.9 meq/L
LDH [2]: 97.2 IU/L
Na [2]: 144.2 meq/L
PL [2]: 155 mg/dL
RALB [2]: 2.8 g/dL
TBIL [2]: 0.016 mg/dL
TC [2]: 81.2 mg/dL
TG [2]: 117 mg/dL
TP [2]: 5.9 g/dL
gamma-GTP [2]: 1.2 IU/L
ALT [3]: 44.4 IU/L
AST [3]: 67.8 IU/L
BUN [3]: 14.8 mg/dL
CRE [3]: 0.2 mg/dL
Ca [3]: 11 mg/dL
DBIL [3]: 0.012 mg/dL
GLC [3]: 194.4 mg/dL
IP [3]: 7.6 mg/dL
K [3]: 4 meq/L
LDH [3]: 80 IU/L
Na [3]: 144.4 meq/L
PL [3]: 165.4 mg/dL
RALB [3]: 2.8 g/dL
TBIL [3]: 0.014 mg/dL
TC [3]: 84.2 mg/dL
TG [3]: 125.4 mg/dL
TP [3]: 6.1 g/dL
gamma-GTP [3]: 1.4 IU/L
ALT [4]: 43.8 IU/L
AST [4]: 64.2 IU/L
BUN [4]: 17.2 mg/dL
CRE [4]: 0.2 mg/dL
Ca [4]: 11.3 mg/dL
Cl [4]: 108.6 meq/L
DBIL [4]: 0.012 mg/dL
GLC [4]: 188.6 mg/dL
IP [4]: 7 mg/dL
K [4]: 4 meq/L
LDH [4]: 82.6 IU/L
Na [4]: 146.6 meq/L
PL [4]: 168.8 mg/dL
RALB [4]: 3 g/dL
TBIL [4]: 0.014 mg/dL
TC [4]: 85.2 mg/dL
TG [4]: 163.4 mg/dL
TP [4]: 6.6 g/dL
gamma-GTP [4]: 1 IU/L
TERMINAL_BW [5]: 201.2 g
Bas [5]: 0%
Eos [5]: 1%
Fbg [5]: 277 mg/dL
Ht [5]: 41.8%
Lym [5]: 71.4%
MCHC [5]: 33.3%
MCV [5]: 64.5 fL
Mono [5]: 2.6%
Neu [5]: 24.2%
PT [5]: 14 s
Plat [5]: 141.9 x10_4/uL
RBC [5]: 651.2 x10_4/ul
Ret [5]: 7.5%
WBC [5]: 87.5 x10_2/uL
KIDNEY_L [5]: 0.9 g
KIDNEY_R [5]: 0.9 g
KIDNEY_TOTAL [5]: 1.8 g
ALT [5]: 36.4 IU/L
AST [5]: 61.8 IU/L
CRE [5]: 0.2 mg/dL
Ca [5]: 11 mg/dL
Cl [5]: 106.6 meq/L
DBIL [5]: 0.014 mg/dL
GLC [5]: 161.8 mg/dL
IP [5]: 8 mg/dL
K [5]: 4 meq/L
LDH [5]: 76.6 IU/L
Na [5]: 143.6 meq/L
PL [5]: 151.4 mg/dL
RALB [5]: 2.6 g/dL
TBIL [5]: 0.012 mg/dL
TC [5]: 92.2 mg/dL
TG [5]: 96.6 mg/dL
TP [5]: 5.4 g/dL
gamma-GTP [5]: 1 IU/L
TERMINAL_BW [6]: 242.9 g
TERMINAL_BW [7]: 272.9 g
TERMINAL_BW [8]: 390.8 g
Bas [6]: 0%
Eos [6]: 0.6%
Fbg [6]: 312.6 mg/dL
Ht [6]: 40.7%
Lym [6]: 70.6%
MCHC [6]: 33.3%
MCV [6]: 63.4 fL
Mono [6]: 2.8%
Neu [6]: 25.4%
PT [6]: 14.6 s
Plat [6]: 130.6 x10_4/uL
RBC [6]: 641.4 x10_4/ul
Ret [6]: 6.3%
WBC [6]: 99.7 x10_2/uL
Bas [7]: 0%
Eos [7]: 0.6%
Fbg [7]: 373.6 mg/dL
Ht [7]: 45.5%
Lym [7]: 73.2%
MCHC [7]: 33.4%
MCV [7]: 59.8 fL
Mono [7]: 3.4%
Neu [7]: 21.4%
PT [7]: 14.1 s
Plat [7]: 133.1 x10_4/uL
RBC [7]: 760 x10_4/ul
Ret [7]: 4%
WBC [7]: 108.8 x10_2/uL
Bas [8]: 0.2%
Eos [8]: 1%
Fbg [8]: 281.5 mg/dL
Ht [8]: 45.1%
Lym [8]: 64.8%
MCHC [8]: 34.1%
MCV [8]: 58.1 fL
Mono [8]: 3.2%
Neu [8]: 30.2%
PT [8]: 14.5 s
Plat [8]: 116.2 x10_4/uL
RBC [8]: 777.2 x10_4/ul
Ret [8]: 3.3%
WBC [8]: 123.1 x10_2/uL
KIDNEY_L [6]: 1 g
KIDNEY_R [6]: 1 g
KIDNEY_TOTAL [6]: 2 g
KIDNEY_L [7]: 1.2 g
KIDNEY_R [7]: 1.2 g
KIDNEY_TOTAL [7]: 2.4 g
KIDNEY_L [8]: 1.5 g
KIDNEY_R [8]: 1.5 g
KIDNEY_TOTAL [8]: 2.9 g
ALT [6]: 50 IU/L
AST [6]: 70.6 IU/L
CRE [6]: 0.2 mg/dL
Ca [6]: 11.3 mg/dL
Cl [6]: 105.6 meq/L
DBIL [6]: 0.006 mg/dL
GLC [6]: 187 mg/dL
IP [6]: 8.3 mg/dL
K [6]: 4 meq/L
LDH [6]: 101.6 IU/L
Na [6]: 144.8 meq/L
PL [6]: 145 mg/dL
RALB [6]: 2.7 g/dL
TBIL [6]: 0.004 mg/dL
TC [6]: 87.2 mg/dL
TG [6]: 59.6 mg/dL
TP [6]: 5.7 g/dL
gamma-GTP [6]: 1.2 IU/L
ALT [7]: 61.6 IU/L
AST [7]: 115.4 IU/L
BUN [7]: 16 mg/dL
CRE [7]: 0.2 mg/dL
Ca [7]: 10.7 mg/dL
DBIL [7]: 0.008 mg/dL
GLC [7]: 166.2 mg/dL
IP [7]: 7.2 mg/dL
K [7]: 4 meq/L
LDH [7]: 96.2 IU/L
Na [7]: 146.4 meq/L
PL [7]: 152.8 mg/dL
RALB [7]: 2.8 g/dL
TBIL [7]: 0.004 mg/dL
TC [7]: 99.2 mg/dL
TG [7]: 66.4 mg/dL
TP [7]: 6.1 g/dL
gamma-GTP [7]: 1 IU/L
ALT [8]: 52.5 IU/L
AST [8]: 64 IU/L
BUN [8]: 17.2 mg/dL
CRE [8]: 0.2 mg/dL
Ca [8]: 11.4 mg/dL
Cl [8]: 105.8 meq/L
DBIL [8]: 0.01 mg/dL
GLC [8]: 174.8 mg/dL
IP [8]: 7.2 mg/dL
K [8]: 3.9 meq/L
LDH [8]: 74.8 IU/L
Na [8]: 145.8 meq/L
PL [8]: 154 mg/dL
RALB [8]: 3 g/dL
TBIL [8]: 0.0025 mg/dL
TC [8]: 85.8 mg/dL
TG [8]: 72.2 mg/dL
TP [8]: 6.4 g/dL
gamma-GTP [8]: 2.2 IU/L
